{"source": "patent US20150105349A1", "about": "“(R)-(-)-1,2-propanediol compositions and methods” (priority 2013, published 2015)", "key": {"[1]": {"system": "periorbital skin and skin above the cheekbone", "test": "cosmetic wipe over periorbital skin and skin above the cheekbone, six female subjects", "type": "in vivo, human", "settings": "10 mg/mL in water (50%), 10% (S)-, 40% (R)-1,2-propanediol", "method": "Six female subjects working at a cosmetics company volunteered to try topical applications of 1-7 and/or 1-8, formulated at 10 mg/mL in water (50%) and 10% (S)-1,2-propanediol, 40% (R)-1,2-propanediol wt/wt. The liquid was put on a cotton square and wiped over the periorbital skin and the skin above the cheekbone. All the subjects remarked on a refreshing coolness on the skin at the sites of application within 2 min after application. There was a “wow” effect, that was considered pleasant and stimulating. […] Four of the six subjects said they felt more “awake and energetic.”"}, "[2]": {"target": "T1, cloned hTRPM8 channel (human TRPM8 gene, expressed in CHO cells) (Homo sapiens, UniProt Q7Z2W7)", "T1 construct": "host or cells: CHO cells", "T1 sequence (Q7Z2W7 whole entry)": "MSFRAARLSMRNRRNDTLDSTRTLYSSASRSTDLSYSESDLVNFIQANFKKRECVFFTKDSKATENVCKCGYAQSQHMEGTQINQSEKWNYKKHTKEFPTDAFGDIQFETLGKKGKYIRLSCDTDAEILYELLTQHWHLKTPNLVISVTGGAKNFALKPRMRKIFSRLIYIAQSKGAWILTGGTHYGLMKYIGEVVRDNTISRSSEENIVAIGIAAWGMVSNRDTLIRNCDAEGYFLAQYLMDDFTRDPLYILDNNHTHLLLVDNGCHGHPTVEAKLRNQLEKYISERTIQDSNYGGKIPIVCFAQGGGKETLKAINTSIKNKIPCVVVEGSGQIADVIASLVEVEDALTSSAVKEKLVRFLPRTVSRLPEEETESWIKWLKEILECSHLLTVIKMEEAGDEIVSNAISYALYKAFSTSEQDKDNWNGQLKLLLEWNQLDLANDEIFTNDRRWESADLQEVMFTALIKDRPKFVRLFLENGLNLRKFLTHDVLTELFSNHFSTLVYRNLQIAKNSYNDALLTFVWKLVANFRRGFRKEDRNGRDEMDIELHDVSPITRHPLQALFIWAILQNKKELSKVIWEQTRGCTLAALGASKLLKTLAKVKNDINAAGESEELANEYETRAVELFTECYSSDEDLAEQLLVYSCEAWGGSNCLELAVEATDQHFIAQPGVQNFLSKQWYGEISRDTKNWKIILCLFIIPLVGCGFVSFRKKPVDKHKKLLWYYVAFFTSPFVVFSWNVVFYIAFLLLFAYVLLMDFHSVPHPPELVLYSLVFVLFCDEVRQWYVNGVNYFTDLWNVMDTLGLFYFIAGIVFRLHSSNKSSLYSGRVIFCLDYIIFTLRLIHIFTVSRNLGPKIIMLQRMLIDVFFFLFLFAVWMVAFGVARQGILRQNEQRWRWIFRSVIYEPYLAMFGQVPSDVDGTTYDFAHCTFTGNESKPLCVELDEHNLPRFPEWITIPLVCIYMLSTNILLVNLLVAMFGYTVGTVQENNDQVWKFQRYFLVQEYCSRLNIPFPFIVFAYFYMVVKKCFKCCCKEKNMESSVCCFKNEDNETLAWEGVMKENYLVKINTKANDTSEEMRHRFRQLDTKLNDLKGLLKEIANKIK", "test": "agonist activity on cloned hTRPM8 channel, Fluo-8 calcium kit, FLIPR", "type": "cell-based", "settings": "TRPM8 receptor assay", "method": "The in vitro effects of test articles were evaluated on cloned hTRPM8 channel (encoded by the human TRPM8 gene, expressed in CHO cells) using a Fluo-8 calcium kit and a Fluorescence Imaging Plate Reader (FLIPR^TETRA™) instrument. […] The total number of carbons in these trialkylphosphine oxides ranged from 12 to 15.\nTo further examine solvent-receptor interactions, stock solutions of 1-7 [1-(Diisopropyl-phosphinoyl)-heptane] were prepared in dimethyl sulfoxide (DMSO) or DMSO containing 10% or 30% by volume of the three isomers of 1,2-propanediol, (R/S-PD, R-PD, and S-PD) and stored frozen. Six dose levels were tested ranging from 0.003 to 3 μM. Ten μl of the test article solution were added to 40 μl of cells in HBPS in glass-lined 384-well compound plates, and placed into the FLIPR instrument for the fluorescence readout (Molecular Devices Corporation, Union City, Calif.)."}, "[3]": {"system": "itchy scalp, seborrheic dermatitis", "test": "topical application to itchy scalp in seborrheic dermatitis, one subject", "type": "in vivo, human", "settings": "10 mg/mL in 12% (S)-1,2-propanediol, 37% (R)-1,2-propanediol, 1% ethanol, 50% water", "method": "A subject with severe seborrheic dermatitis complained of an itchy scalp which was not resolved with anti-dandruff shampoos. […] The delivery was made using a 20 mL reservoir bottle capped with a Yorker spout. They remarked that routine application of the solution on an “as needed basis” stopped the itch for 6 to 8 hours and repeat applications for one week allowed their scalp to feel refreshed and normal. They proposed to pay for a continued supply of the solution."}, "philtrum skin": {"system": "philtrum skin", "test": "philtrum skin cooling bioassay (subjective coolness rating 0-3)", "type": "in vivo, human", "settings": "49% distilled water, 1% ethanol", "from_the_text": "The term “alcoholic solvent” refers to a chemical with one to four carbons with at least one hydroxyl group attached to a carbon atom. A reliable place for topical application is the skin above the upper lip (above the vermilion border of the lips), on the philtrum, lateral to the philtrum until the nasolabial folds, and on the lower nostrils (subnasale). This part of the face is known to be densely innervated with cold receptors, second only to the surfaces of the eyeball and anogenitalia. Tingling, cool and cold sensations from the skin may be experienced and rated for time of onset and intensity.\nThe intervals for recording sensations are 5 to 10 minutes, until two successive zeros are obtained. The results (shown in the Figures) are averaged values of 4 to 6 separate trials in the same individual. The data are plotted using SigmaPlot (Systat Software, Point Richmond, Calif.) and a smoothing function with a negative exponential was used for analysis and statistical fit of the results. The onset of drug action is taken as the time to reach 2 units of coolness intensity, and offset of drug action is the time when coolness intensity drops below 2, after previously surpassing 2 units. […] The duration of cooling action is defined as the offset time minus the onset time and the primary index of effect. As described in Examples, the test compounds were tested at 2 to 10 mg/mL of vehicle.\nFor assays on the skin, the cooling agent(s) was dissolved in the alcoholic solvent to yield a 2, 2.5, 3, 5 or 10 mg/mL solution. Using a cotton-tipped applicator (e.g. Q-tips®) 0.10 to 0.25 mL of the test solution was applied to the skin above the upper lip, on the philtrum, and lateral to the philtrum up to the nasolabial folds, and the onset and duration of cooling sensations noted. […] The interval for recording sensations was at 5 to 10 minute intervals, until at least two successive zeros were obtained. The results were averaged values of 3 to 6 separate trials in the same individual. The “onset” is the time taken to reach a coolness intensity value of 2. […] The “off-set” is when the coolness intensity drops below 2, and the duration is the time of off-set minus the time of onset. The area under the curve (AUC) gives an estimate of the intensity and duration of drug action and can be obtained from the plotted data using SigmaPlot (Systat Software, Point Richmond, Calif.). The AUC unit is the product of cooling intensity x min."}}}
{"smiles": "CCCCCCCCP(=O)(C(C)C)C(C)C", "note": "[1-8]", "values": [{"measurement": "irritation or redness on the skin after applications", "setting": "[1]", "value": "no irritation or redness"}, {"measurement": "time facial skin felt cool and dry after application", "setting": "[1]; all subjects", "value": "at least one hour"}, {"measurement": "Potency Relative to I-menthol", "setting": "[2]", "value": 5.4}, {"measurement": "EC50", "setting": "[2]; read-out: EC50 μM (95% C, L.)", "value": 0.7, "unit": "µM"}, {"measurement": "duration for which itch was stopped", "setting": "[3]", "value": "6 to 8", "unit": "h"}, {"measurement": "Ratio of AUC 75/25% R/S to 25/75% R/S (fold increase in cooling activity)", "setting": "philtrum skin", "value": 1.5}]}
